Measured values published in patent US11518758B2, “Heteroarylaminopyrimidine amide autophagy inhibitors and methods of use thereof” (Deciphera Pharmaceuticals, LLC, priority 2019, dated 2022).

Assays:
[1] = test system: phospho-Serine 318 ATG13 (pATG13), ULK kinase substrate, in A549 (KRAS mutant) cells; experiment: pATG13 levels of mutant KRas A549 cells after treatment with ULK inhibitors in combination with trametinib (ELISA); assay type: cell-based, human; settings: with 250 nM trametinib
Method: Example 177. Cellular Inhibition of ULK Kinase Substrate ATG13 Protein pATG13 Levels of Mutant KRas A549 Cells after Treatment with ULK Inhibitors in Combination with Trametinib
A549 (KRAS mutant) human lung cancer cells (6,000 cells/well) were added to a 384-well tissue-culture treated plate in 50 μL of pre-warmed DMEM medium supplemented with 10% characterized fetal bovine serum (Invitrogen, Carlsbad, Calif.), 100 units/mL penicillin G, and 100 μg/mL streptomycin and allowed to grow overnight at 37° C., 5% CO2, and 95% humidity. The following day, 10 μL of media containing trametinib or DMSO as a control was added to wells. The final concentration of trametinib in wells was 250 nM. A dose response of a test compound (0.6 μL per well) was added. DMSO (0.6 μL) was added to control wells. The plate was briefly shaken to mix wells and then incubated at 37° C. overnight. The next day, the media was aspirated and cells were washed with Dulbecco's Phosphate Buffered Saline (Gibco). Cells were lysed using MPER lysis buffer (Pierce, Rockford, Ill.) containing Halt Phosphatase and Protease Inhibitors (Pierce, Rockford, Ill.) and Phosphatase inhibitor cocktail 2 (Sigma, St. Louis, Mo.) at 4° C. for 10 minutes with shaking.
Cellular levels of phospho-Serine 318 ATG13 (pATG13) were measured via an ELISA method. Total ATG13 Antibody (Cell Signaling Cat #13273) was used to coat the wells. The plate was incubated at 4° C. overnight and washed with ELISA wash buffer (Biolegend Cat #421601). The wells were then blocked with assay diluent (Biolegend Cat #421203) for 1 hour at room temperature. Plate wells were washed with ELISA wash buffer. Cell lysate was added to wells and incubated at room temperature for 2 hours. Plate wells were washed with ELISA wash buffer. Biotinylated pS318-ATG13 antibody (Rockland Immunochemicals Cat #600-401-C49) was diluted in assay diluent and added to each well and incubated at room temperature for 1 hour. Plate wells were washed with ELISA wash buffer. Streptavidin linked to horseradish peroxidase (Thermo Fisher Cat #21140) was diluted in assay diluent and added to each well and incubated at room temperature for 1 hour. Plate wells were washed with ELISA wash buffer. High sensitivity TMB substrate (Biolegend Cat #421101) was added to each well and incubated at room temperature for 20 minutes. The reaction was stopped with 2N Sulfuric Acid. The plate was analyzed at on a plate reader measuring absorbance at 450 nm and 540 nm (background). Signal was calculated by first subtracting the background absorbance at 540 nm from the absorbance at 450 nm for each well. Next, the background corrected absorbance at 450 nm from blank wells was subtracted from test wells. Data was compared to control wells to determine % ATG13 phosphorylation. GraphPad Prism was used to calculate IC50 values.

ULK2 kinase = molecular target: T1, ULK2 kinase (Homo sapiens, UniProt Q8IYT8); experiment: Biochemical assay for ULK2 (coupled pyruvate kinase/lactate dehydrogenase assay); settings: 9.7 nM ULK2 (Eurofins), myelin basic protein, 1 mM ATP; read-out: ULK2.2
T1 construct: purchased Eurofins 14-772
Method: Example 176. Biochemical Assay for ULK2
(§1) Activity of ULK2 kinase was determined spectroscopically using a coupled pyruvate kinase/lactate dehydrogenase assay that continuously monitors the ATP hydrolysis-dependent oxidation of NADH (e.g., Schindler et al. Science (2000) 289: 1938-1942). Assays were conducted in 384-well plates (100 uL final volume) using 9.7 nM ULK2 (Eurofins CAT #14-772), 0.25 mg/mL myelin basic protein, 1.5 units pyruvate kinase, 2.1 units lactate dehydrogenase, 1 mM phosphoenol pyruvate, 0.28 mM NADH and 1 mM ATP in assay buffer (100 mM Tris, pH 7.5, 15 mM MgCl2, 0.5 mM DTT, 0.1% octyl-glucoside, 0.002% (w/v) BSA, and 0.002% Triton X-100). Inhibition of ULK2 was measured by adding serial diluted test compound (final assay concentration of 1% DMSO). A decrease in absorption at 340 nm was monitored continuously for 6 hours at 30° C. on a multi-mode microplate reader (BioTek). The reaction rate was calculated using the 2-3 h time frame. The reaction rate at each concentration of compound was converted to percent inhibition using controls (i.e. reaction with no test compound and reaction with a known inhibitor) and IC50 values were calculated by fitting a four-parameter sigmoidal curve to the data using Prism (GraphPad software).

ULK1 kinase = molecular target: T2, ULK1 kinase (Homo sapiens, UniProt O75385); experiment: Biochemical assay for ULK1.2 (coupled pyruvate kinase/lactate dehydrogenase assay); settings: 19 nM ULK1 (Eurofins), myelin basic protein, 1 mM ATP
T2 construct: purchased Eurofins 14-959
T2 sequence (O75385 with tags, fused parts or gaps): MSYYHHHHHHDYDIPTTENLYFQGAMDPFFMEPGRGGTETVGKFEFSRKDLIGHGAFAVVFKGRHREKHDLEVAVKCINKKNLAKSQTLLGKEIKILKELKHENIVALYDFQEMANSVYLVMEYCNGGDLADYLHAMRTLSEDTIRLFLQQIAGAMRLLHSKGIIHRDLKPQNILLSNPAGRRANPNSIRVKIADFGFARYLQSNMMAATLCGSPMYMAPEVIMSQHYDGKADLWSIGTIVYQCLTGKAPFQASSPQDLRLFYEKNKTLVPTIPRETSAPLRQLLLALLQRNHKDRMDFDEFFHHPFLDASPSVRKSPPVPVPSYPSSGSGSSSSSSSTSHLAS
Method: Example 174. Biochemical Assay for ULK1.2
as §1, with “ULK1” for “ULK2”, “19” for “9.7”, “#14-959),” for “#14-772),”

LRRK2 kinase = molecular target: T3, LRRK2 kinase (Homo sapiens, UniProt Q5S007); experiment: Biochemical assay for LRRK2 (coupled pyruvate kinase/lactate dehydrogenase assay); settings: 26.4 nM LRRK2 (residues 970-2528), 0.1 mM peptide substrate, 1 mM ATP
T3 construct: purchased Thermo Fisher
Method: Example 182. Biochemical Assay for LRRK2 (SEQ. ID NO. 4)
Activity of LRRK2 kinase was determined spectroscopically using a coupled pyruvate kinase/lactate dehydrogenase assay that continuously monitors the ATP hydrolysis-dependent oxidation of NADH (e.g., Schindler et al. Science (2000) 289: 1938-1942). Assays were conducted in 384-well plates (100 uL final volume) using 26.4 nM LRRK2 (Thermo Fisher), 0.1 mM peptide substrate (RLGRDKYKTLRQIRQ (SEQ ID NO: 6)), 1.5 units pyruvate kinase, 2.1 units lactate dehydrogenase, 1 mM phosphoenol pyruvate, 0.28 mM NADH and 1 mM ATP in assay buffer (100 mM Tris, pH 7.5, 15 mM MgCl2, 0.5 mM DTT, 0.004% (w/v) BSA, and 0.004% Triton X-100). Inhibition of LRRK2 was measured by adding serial diluted test compound (final assay concentration of 1% DMSO). A decrease in absorption at 340 nm was monitored continuously for 6 hours at 30° C. on a multi-mode microplate reader (BioTek). The reaction rate was calculated using the 2-3 h time frame. The reaction rate at each concentration of compound was converted to percent inhibition using controls (i.e. reaction with no test compound and reaction with a known inhibitor) and IC50 values were calculated using software routines in Prism (GraphPad software).

T3 sequence (Q5S007 with tags, fused parts or gaps): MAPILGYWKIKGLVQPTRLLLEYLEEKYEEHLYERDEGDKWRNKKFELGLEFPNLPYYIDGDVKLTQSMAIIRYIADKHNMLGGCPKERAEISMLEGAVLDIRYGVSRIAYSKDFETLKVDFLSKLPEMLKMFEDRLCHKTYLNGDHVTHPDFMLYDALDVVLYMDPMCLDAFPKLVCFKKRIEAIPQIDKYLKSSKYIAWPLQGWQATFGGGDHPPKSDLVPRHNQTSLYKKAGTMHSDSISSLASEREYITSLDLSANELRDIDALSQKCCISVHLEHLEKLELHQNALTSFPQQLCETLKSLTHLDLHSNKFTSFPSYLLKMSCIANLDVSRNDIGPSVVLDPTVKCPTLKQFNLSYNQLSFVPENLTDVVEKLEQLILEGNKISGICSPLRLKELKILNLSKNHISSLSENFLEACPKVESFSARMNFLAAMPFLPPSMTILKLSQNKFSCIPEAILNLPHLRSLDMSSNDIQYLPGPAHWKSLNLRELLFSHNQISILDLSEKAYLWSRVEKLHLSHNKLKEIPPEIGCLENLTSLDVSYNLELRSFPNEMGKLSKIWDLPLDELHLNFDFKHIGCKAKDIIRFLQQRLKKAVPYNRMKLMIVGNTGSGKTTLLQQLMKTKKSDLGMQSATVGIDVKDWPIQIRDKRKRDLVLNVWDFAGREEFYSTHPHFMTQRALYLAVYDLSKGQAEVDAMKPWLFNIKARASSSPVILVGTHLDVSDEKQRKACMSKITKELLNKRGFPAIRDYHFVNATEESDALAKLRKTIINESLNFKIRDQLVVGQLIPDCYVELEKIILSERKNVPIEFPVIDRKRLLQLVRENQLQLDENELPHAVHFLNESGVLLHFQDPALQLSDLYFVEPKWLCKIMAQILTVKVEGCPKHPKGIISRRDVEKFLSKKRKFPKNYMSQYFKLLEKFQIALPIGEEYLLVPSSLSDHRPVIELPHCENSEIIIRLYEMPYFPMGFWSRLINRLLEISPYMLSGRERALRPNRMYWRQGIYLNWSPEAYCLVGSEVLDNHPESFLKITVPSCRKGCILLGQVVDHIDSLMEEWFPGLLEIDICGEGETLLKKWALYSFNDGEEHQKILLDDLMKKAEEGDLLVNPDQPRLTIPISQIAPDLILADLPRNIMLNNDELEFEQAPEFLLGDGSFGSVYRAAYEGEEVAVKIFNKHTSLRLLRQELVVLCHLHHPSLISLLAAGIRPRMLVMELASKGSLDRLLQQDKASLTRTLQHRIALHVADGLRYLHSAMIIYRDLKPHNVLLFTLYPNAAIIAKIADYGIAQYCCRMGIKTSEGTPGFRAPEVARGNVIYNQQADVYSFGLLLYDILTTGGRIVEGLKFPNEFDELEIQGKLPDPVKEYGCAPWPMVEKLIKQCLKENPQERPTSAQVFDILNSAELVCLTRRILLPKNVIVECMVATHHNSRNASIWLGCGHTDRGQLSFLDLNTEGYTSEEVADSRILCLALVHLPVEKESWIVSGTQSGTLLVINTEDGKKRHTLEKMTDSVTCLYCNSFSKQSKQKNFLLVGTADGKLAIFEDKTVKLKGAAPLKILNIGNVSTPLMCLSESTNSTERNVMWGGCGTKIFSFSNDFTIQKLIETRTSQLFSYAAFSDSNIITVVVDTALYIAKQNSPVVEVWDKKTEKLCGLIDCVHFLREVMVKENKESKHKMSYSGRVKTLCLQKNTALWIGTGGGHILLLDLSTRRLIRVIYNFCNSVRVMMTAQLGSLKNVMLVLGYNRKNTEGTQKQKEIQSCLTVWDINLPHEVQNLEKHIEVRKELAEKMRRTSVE
T1 sequence (Q8IYT8 with tags, fused parts or gaps): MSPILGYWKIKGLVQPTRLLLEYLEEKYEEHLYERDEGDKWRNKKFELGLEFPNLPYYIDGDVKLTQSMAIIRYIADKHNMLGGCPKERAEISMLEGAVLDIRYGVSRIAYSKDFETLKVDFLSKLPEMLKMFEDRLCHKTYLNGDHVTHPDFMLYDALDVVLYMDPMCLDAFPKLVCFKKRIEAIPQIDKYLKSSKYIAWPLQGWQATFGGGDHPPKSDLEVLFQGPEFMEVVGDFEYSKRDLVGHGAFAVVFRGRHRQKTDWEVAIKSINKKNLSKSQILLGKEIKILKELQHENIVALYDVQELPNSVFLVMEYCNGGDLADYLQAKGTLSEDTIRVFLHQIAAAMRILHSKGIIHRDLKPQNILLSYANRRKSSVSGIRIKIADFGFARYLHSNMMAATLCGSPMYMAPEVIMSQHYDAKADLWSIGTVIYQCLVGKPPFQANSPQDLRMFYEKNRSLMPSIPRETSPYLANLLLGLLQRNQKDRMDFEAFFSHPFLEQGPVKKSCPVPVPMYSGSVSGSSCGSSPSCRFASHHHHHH

| IC50 [1] [nM] | IC50 (ULK2 kinase) [nM] | IC50 (ULK1 kinase) [nM] | IC50 (LRRK2 kinase) [nM] | SMILES |
| --- | --- | --- | --- | --- |
| 10 to 100 | 25 to 100 | 1 to 25 |  | CCN1CC[C@@H](n2cc(Nc3ncc(C(F)(F)F)c(NCCCN4CCCCC4=O)n3)c(C)n2)C1 [Example 25] |
| > 600 | 25 to 100 | 1 to 25 |  | O=C1CCCCN1CCCNc1nc(Nc2cnn(C3CCNCC3)c2)ncc1Cl [Example 4] |
| > 600 | 100 to 500 | 25 to 100 |  | Cc1nn(C2CCNCC2)cc1Nc1ncc(Cl)c(NCCCN2CCCCCC2=O)n1 [Example 86] |
| 10 to 100 | 100 to 500 | 1 to 25 | 100 to 300 | Cc1nn(C2CCN(C)CC2)cc1Nc1ncc(Cl)c(NCCCN2CCCCCC2=O)n1 [Example 80, 1-(3-((5-chloro-2-((3-methyl-1-(1-methylpiperidin-4-yl)-1H-pyrazol-4-yl)amino)pyrimidin-4-yl)amino)propyl)azepan-2-one] |
|  | 25 to 100 | 1 to 25 |  | CN1CCC(n2cc(Nc3ncc(Cl)c(NCCCN4CCCCC4=O)n3)cn2)CC1 [Example 2] |
| 300 to 600 | 100 to 500 | 1 to 25 |  | Cc1nn(C2CCN(C3COC3)CC2)cc1Nc1ncc(C(F)(F)F)c(NCCCN2CCCCCC2=O)n1 [Example 91] |
|  | 100 to 500 | 25 to 100 |  | CCc1nn(C2CCNCC2)cc1Nc1ncc(Br)c(NCCCN2CCCCC2=O)n1 [Example 41] |
| > 600 | 25 to 100 | 1 to 25 |  | Cc1nn(C2CCN(C)CC2)cc1Nc1ncc(Br)c(NCCCN2CCCCC2=O)n1 [Example 51] |
| 100 to 300 | 1 to 25 | 1 to 25 |  | Cc1nn(C2CCNCC2)cc1Nc1ncc(C(F)(F)F)c(NCCCN2CCCCCC2=O)n1 [Example 83, 1-(3-((2-((3-methyl-1-(piperidin-4-yl)-1H-pyrazol-4-yl)amino)-5-(trifluoromethyl)pyrimidin-4-yl)amino)propyl)azepan-2-one] |
| > 600 | 100 to 500 | 25 to 100 |  | Cc1nn(C2CCNCC2)cc1Nc1ncc(Cl)c(NCCCN2CCCCC2=O)n1 [Example 27] |
| 10 to 100 | 1 to 25 | 1 to 25 |  | CN1CCC(n2cc(Nc3ncc(Cl)c(NCCCN4CCCCCC4=O)n3)cn2)CC1 [Example 81] |
|  | > 500 | 25 to 100 | > 600 | CN1CCC(n2cc(Nc3ncc(C4CC4)c(NCCCN4CCCCC4=O)n3)cn2)CC1 [Example 1] |
|  | > 500 | 100 to 500 | > 600 | CN1CCC(n2cc(Nc3ncc(C4CC4)c(NCCCN4CCN(C)C4=O)n3)cn2)CC1 [Example 147] |
| > 600 | 25 to 100 | 25 to 100 |  | Cc1nn(C2CCNCC2)cc1Nc1ncc(C(F)(F)F)c(NCCCN2CCCC2=O)n1 [Example 103] |
| 10 to 100 | 1 to 25 | 1 to 25 |  | CN1CCC(n2cc(Nc3ncc(C(F)(F)F)c(NCCCN4CCCCCC4=O)n3)cn2)CC1 [Example 78] |
| > 600 | 25 to 100 | 1 to 25 | 300 to 600 | Cc1nn(C2CCNCC2)cc1Nc1ncc(Br)c(NCCCN2CCCCC2=O)n1 [Example 26] |
| > 600 | 25 to 100 | 25 to 100 | 300 to 600 | Cc1nn(C2CCN(C)CC2)cc1Nc1ncc(C(F)(F)F)c(NCCCN2CCCC2=O)n1 [Example 104] |
| 100 to 300 | 25 to 100 | 1 to 25 |  | CN1CCC(n2cc(Nc3ncc(C(F)(F)F)c(NCCCN4CCCC4=O)n3)cn2)CC1 [Example 166] |
|  |  | > 500 | > 600 | CC1(C)CCC(=O)N1CCCNc1nc(Nc2cnn(C3CCN(C4CC4)CC3)c2)ncc1C1CC1 [Example 69] |
| 100 to 300 | 1 to 25 | 1 to 25 |  | O=C1CCCCCN1CCCNc1nc(Nc2cnn(C3CCNCC3)c2)ncc1C(F)(F)F [Example 77] |
